Measurements: ChEMBL document CHEMBL1201862, “PubChem BioAssay data set” (2004)
The source made the active and inactive calls. Rule as the data show it, for most assays here: actives have a measured EC50 and inactives only a lower limit.

Experiments:
[1] = inhibitors of firefly luciferase expression or activity, dose response, H4 neuroglioma cells, luminescence (AID 1990); assay type: functional, cell-based
BJ [2] = experiment: cytotoxicity toward BJ-TERT fibroblasts, dose response, cell-based, RAS-independent, luminescence (AID 1933); assay type: functional; settings: Homo sapiens
[3] = Luminescence Cell-Based Dose Response HTS to Identify Inhibitors of 5'UTR Stem-Loop Driven Prion Protein mRNA Translation in H4 Neuroglioblastoma Cells. [Related pubchem assays: 1827 (Project Summary), 1813 (Primary HTS)]; assay type: functional
[4] = inhibitors of SNCA 5'UTR-driven reporter translation, confirmation, H4 neuroglioma cells, luminescence (AID 1988); assay type: functional, cell-based
BJ [5] = experiment: cells; assay type: functional, cell-based; settings: Homo sapiens
BJ [6] = experiment: cytotoxicity toward BJ-TERT-LT-ST fibroblasts, dose response, cell-based, RAS-independent, luminescence (AID 1935); assay type: functional; settings: Homo sapiens;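 also: BJ fibroblasts immortalized with TERT plus LT and ST oncogenes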
[7] = cytotoxicity toward DRD oncogenic fibroblasts, dose response, cell-based, non-viral oncogenic, luminescence (AID 1934); assay type: functional; settings: Homo sapiens
BJ [8] = experiment: cytotoxicity toward Ras-transformed BJeLR fibroblasts, dose response, cell-based, alamar blue fluorescence, cherrypicked samples (AID 2631); assay type: functional; settings: Homo sapiens;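 also: confirmatory dose-response assay in RAS-dependent BJ fibroblasts engineered with TERT, LT and ST, with cytotoxicity read by fluorescence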
[9] = molecular target: DNA dC->dU-editing enzyme APOBEC-3A (Homo sapiens, UniProt P31941); experiment: Dose Response confirmation of small molecule APOBEC3A DNA Deaminase Inhibitors via a fluorescence-based single-stranded DNA deaminase assay. [Related pubchem assays (depositor defined):AID493011, AID493024]; assay type: functional
DNA dC->dU-editing enzyme APOBEC-3A, sequence (P31941 whole entry): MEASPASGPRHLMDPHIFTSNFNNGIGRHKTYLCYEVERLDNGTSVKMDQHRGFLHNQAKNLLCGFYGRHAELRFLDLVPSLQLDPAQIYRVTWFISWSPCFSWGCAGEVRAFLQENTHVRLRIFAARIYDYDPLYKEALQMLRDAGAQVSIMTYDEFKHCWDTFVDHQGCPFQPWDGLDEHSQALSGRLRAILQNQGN

[10] = molecular target: DNA dC->dU-editing enzyme APOBEC-3G (Homo sapiens, UniProt Q9HC16); assay type: functional;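 also: Dose-response counterscreen measuring inhibition of APOBEC3G DNA deaminase activity, run while confirming APOBEC3A inhibitors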
DNA dC->dU-editing enzyme APOBEC-3G, sequence (Q9HC16 whole entry, the tested form may be a part): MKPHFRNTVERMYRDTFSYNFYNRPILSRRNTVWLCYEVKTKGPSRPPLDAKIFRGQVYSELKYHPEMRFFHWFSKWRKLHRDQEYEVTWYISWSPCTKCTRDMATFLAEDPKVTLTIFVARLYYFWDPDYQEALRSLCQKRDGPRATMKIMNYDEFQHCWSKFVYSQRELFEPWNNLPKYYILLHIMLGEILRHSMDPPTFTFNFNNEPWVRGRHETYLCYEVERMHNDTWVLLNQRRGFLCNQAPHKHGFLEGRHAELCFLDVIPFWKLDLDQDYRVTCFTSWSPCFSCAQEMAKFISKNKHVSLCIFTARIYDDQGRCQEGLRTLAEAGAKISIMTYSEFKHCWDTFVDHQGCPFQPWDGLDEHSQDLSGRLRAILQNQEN

[11] = molecular target: T1, Carboxy-terminal domain RNA polymerase II polypeptide A small phosphatase 1 (Homo sapiens, UniProt Q9GZU7); experiment: inhibitors of CTDSP1, concentration-response testing, biochemical assay, absorbance-based, actives from ultra-high-throughput screening (AID 540297); assay type: functional
T1 sequence (Q9GZU7 whole entry): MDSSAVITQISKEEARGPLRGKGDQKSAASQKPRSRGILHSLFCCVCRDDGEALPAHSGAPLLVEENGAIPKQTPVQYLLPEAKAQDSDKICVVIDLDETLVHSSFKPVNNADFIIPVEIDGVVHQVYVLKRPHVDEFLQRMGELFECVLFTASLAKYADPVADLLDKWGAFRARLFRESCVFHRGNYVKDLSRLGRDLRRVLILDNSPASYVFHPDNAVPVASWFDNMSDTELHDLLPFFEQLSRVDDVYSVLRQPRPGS

[12] = molecular target: DNA (cytosine-5)-methyltransferase 1 (Homo sapiens, UniProt P26358); experiment: DNMT1 methyltransferase inhibitors, confirmation, biochemical, fluorescent molecular beacon (AID 602386); assay type: functional
DNA (cytosine-5)-methyltransferase 1, sequence (P26358 whole entry): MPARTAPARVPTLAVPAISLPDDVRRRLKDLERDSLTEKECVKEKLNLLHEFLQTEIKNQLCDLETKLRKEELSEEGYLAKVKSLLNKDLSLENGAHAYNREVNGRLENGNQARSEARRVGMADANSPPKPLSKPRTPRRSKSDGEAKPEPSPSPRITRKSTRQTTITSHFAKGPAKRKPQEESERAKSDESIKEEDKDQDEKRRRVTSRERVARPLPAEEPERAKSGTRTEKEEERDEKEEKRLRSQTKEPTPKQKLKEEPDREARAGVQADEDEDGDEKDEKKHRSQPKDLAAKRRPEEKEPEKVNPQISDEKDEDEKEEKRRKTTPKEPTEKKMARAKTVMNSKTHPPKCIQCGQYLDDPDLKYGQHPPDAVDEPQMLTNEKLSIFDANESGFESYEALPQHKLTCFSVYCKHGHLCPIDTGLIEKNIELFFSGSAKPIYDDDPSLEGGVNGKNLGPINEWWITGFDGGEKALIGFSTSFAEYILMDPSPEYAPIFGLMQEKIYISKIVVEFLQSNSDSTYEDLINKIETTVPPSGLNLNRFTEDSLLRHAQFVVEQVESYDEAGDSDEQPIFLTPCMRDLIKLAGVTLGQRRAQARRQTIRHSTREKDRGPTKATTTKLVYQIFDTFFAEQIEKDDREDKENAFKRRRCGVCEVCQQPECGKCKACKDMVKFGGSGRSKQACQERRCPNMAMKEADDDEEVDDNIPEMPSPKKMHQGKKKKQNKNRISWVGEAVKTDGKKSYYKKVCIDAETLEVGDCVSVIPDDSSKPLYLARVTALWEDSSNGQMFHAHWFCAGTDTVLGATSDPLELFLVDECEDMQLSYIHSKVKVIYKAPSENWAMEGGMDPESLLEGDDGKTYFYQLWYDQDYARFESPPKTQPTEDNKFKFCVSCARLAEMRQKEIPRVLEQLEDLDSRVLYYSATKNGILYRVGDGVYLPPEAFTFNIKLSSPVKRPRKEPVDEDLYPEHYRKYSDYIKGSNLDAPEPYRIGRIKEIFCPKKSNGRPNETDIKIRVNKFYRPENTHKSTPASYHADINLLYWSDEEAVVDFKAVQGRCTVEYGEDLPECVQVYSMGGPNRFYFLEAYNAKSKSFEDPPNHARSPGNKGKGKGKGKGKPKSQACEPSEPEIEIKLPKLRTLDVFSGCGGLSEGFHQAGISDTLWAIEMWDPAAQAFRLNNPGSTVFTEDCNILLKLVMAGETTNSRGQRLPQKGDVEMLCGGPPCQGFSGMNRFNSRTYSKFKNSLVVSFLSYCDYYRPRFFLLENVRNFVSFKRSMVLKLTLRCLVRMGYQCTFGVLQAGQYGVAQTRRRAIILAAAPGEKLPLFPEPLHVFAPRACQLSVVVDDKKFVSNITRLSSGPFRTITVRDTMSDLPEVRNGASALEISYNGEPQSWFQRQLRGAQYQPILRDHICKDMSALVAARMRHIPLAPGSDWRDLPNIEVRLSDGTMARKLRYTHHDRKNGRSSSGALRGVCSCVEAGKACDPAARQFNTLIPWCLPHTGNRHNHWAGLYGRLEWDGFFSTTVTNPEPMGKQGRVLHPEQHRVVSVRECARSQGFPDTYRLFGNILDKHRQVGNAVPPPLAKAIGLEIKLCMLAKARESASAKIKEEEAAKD

[13] = Luminescence Cell-Based Dose Confirmation HTS to Identify Activators of 5'UTR Stem-Loop Driven Alpha-Synuclein mRNA Translation in H4 Neuroglioblastoma Cells. [Related pubchem assays: 1829 (Project Summary), 1814 (Primary HTS)]; assay type: functional
[14] = Luminescence Cell-Based Dose Response HTS to Identify Activators of Luciferase Translation or Activity in H4 […] Cells. [Related pubchem assays: 1829 (Project Summary), 1814 (Primary HTS)]; assay type: functional
H4 = experiment: Luminescence Cell-Based Dose Response HTS to Identify Activators of 5'UTR Stem-Loop Driven Prion Protein mRNA Translation in H4 Neuroglioblastoma Cells. [Related pubchem assays: 1829 (Project Summary), 1814 (Primary HTS)]; assay type: functional; settings: Homo sapiens
[15] = molecular target: Voltage-dependent T-type calcium channel subunit alpha-1H (Homo sapiens, UniProt O95180); assay type: functional;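 also: channel activity triggered by adding a high calcium stimulation buffer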
Voltage-dependent T-type calcium channel subunit alpha-1H, sequence (O95180 whole entry): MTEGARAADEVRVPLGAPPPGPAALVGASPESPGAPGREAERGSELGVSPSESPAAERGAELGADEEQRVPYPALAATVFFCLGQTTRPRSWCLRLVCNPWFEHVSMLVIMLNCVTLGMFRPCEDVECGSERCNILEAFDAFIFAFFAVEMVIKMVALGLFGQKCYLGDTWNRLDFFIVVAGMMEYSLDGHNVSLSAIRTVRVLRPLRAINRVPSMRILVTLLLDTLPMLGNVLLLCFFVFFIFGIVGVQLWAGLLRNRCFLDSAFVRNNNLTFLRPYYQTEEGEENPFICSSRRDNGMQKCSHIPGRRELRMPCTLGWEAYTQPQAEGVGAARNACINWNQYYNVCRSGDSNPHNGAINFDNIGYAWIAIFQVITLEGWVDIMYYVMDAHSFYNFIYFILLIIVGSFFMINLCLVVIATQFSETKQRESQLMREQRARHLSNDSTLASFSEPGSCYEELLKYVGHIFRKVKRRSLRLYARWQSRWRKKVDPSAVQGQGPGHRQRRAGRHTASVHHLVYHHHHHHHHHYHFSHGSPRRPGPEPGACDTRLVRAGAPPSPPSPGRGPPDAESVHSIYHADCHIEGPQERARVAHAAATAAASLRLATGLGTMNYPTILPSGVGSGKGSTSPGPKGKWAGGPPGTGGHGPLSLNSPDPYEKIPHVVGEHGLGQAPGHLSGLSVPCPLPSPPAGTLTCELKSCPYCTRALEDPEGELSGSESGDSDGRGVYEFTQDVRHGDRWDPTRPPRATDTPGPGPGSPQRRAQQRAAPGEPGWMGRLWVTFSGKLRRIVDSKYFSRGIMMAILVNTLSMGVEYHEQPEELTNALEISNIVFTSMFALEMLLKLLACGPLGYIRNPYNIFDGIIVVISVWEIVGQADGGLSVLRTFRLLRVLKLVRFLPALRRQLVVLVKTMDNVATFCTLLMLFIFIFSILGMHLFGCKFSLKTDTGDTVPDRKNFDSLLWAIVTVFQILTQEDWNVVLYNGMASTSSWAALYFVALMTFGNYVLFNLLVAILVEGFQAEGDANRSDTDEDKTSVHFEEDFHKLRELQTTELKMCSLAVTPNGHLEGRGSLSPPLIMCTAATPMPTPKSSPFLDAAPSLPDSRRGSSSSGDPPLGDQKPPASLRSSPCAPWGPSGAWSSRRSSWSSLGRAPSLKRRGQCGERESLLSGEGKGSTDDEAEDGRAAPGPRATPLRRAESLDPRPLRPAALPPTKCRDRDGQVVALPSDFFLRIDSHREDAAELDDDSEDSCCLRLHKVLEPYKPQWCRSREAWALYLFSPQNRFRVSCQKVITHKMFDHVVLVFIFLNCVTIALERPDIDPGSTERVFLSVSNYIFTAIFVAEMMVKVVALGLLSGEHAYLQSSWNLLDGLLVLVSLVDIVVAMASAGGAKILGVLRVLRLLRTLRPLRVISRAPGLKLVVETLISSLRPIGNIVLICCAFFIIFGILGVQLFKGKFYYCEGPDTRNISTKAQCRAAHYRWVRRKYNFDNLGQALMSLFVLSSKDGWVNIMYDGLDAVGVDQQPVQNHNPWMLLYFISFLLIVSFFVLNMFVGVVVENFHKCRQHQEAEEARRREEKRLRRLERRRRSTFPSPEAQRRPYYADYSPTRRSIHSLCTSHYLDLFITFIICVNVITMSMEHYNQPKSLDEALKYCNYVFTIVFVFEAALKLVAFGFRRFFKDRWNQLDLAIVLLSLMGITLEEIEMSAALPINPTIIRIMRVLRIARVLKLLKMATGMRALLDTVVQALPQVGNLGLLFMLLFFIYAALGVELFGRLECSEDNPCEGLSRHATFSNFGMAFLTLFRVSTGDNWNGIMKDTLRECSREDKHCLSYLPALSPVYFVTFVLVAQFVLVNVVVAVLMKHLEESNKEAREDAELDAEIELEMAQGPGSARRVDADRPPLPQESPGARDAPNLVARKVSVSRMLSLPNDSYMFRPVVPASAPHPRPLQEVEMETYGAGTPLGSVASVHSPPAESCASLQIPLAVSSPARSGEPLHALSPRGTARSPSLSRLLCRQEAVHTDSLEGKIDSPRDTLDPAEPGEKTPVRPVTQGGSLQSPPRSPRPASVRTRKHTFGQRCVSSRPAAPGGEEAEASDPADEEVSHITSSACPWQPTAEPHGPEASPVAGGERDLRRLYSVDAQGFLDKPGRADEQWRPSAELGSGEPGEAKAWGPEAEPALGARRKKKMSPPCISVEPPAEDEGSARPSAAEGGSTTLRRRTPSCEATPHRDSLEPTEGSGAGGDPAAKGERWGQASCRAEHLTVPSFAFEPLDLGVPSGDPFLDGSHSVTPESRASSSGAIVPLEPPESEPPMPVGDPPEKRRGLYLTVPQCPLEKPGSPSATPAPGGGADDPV

Caspase-3 = molecular target: T2, Caspase-3 (Homo sapiens, UniProt P42574); assay type: functional;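 also: Dose-response selectivity test against caspase-3 for candidate inhibitors of sentrin-specific proteases (SENPs)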
T2 sequence (P42574 whole entry): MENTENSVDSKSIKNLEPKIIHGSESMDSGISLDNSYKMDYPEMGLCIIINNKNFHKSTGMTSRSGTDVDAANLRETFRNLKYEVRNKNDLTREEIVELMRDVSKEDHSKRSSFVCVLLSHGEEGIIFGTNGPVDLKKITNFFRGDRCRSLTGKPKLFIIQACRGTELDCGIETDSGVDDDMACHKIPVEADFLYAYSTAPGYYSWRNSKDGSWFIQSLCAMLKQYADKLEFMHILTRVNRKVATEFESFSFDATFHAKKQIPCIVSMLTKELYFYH

[16] = molecular target: T3, Sentrin-specific protease 7 (Homo sapiens, UniProt Q9BQF6); assay type: functional;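 also: Luminescence-based dose-response confirmation of ultra-high-throughput screening hits, measuring inhibition of SENP7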
T3 sequence (Q9BQF6 whole entry): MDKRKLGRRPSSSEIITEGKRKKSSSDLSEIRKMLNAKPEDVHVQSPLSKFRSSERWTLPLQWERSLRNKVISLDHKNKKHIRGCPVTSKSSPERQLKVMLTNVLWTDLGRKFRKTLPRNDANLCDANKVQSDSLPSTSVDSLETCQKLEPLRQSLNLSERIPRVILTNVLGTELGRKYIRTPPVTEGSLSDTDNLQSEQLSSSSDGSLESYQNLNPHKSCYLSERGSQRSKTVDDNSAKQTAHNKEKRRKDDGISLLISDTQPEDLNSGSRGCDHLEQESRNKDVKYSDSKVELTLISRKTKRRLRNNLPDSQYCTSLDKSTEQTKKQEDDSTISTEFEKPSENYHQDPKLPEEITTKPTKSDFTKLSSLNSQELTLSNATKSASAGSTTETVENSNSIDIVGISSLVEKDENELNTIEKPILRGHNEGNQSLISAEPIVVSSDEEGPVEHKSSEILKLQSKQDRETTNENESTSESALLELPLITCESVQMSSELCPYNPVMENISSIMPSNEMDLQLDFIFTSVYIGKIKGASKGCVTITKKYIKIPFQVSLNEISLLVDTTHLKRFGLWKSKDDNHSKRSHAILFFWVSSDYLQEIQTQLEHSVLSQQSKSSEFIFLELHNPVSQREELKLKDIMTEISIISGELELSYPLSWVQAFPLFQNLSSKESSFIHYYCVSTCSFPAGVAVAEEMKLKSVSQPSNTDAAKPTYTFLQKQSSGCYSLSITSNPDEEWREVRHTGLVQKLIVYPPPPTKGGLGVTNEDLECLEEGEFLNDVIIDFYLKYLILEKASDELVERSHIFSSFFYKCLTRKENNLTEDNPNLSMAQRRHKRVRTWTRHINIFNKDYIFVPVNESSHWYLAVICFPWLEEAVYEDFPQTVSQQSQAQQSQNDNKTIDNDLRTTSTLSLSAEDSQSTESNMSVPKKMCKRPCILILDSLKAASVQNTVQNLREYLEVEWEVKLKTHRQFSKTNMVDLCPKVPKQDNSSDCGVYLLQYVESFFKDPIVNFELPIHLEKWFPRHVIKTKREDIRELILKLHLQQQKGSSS

[17] = molecular target: T4, Sentrin-specific protease 6 (Homo sapiens, UniProt Q9GZR1); assay type: functional;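 also: Luminescence-based dose-response confirmatory assay of SENP6 inhibition, following up an ultra-high-throughput screen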
T4 sequence (Q9GZR1 whole entry): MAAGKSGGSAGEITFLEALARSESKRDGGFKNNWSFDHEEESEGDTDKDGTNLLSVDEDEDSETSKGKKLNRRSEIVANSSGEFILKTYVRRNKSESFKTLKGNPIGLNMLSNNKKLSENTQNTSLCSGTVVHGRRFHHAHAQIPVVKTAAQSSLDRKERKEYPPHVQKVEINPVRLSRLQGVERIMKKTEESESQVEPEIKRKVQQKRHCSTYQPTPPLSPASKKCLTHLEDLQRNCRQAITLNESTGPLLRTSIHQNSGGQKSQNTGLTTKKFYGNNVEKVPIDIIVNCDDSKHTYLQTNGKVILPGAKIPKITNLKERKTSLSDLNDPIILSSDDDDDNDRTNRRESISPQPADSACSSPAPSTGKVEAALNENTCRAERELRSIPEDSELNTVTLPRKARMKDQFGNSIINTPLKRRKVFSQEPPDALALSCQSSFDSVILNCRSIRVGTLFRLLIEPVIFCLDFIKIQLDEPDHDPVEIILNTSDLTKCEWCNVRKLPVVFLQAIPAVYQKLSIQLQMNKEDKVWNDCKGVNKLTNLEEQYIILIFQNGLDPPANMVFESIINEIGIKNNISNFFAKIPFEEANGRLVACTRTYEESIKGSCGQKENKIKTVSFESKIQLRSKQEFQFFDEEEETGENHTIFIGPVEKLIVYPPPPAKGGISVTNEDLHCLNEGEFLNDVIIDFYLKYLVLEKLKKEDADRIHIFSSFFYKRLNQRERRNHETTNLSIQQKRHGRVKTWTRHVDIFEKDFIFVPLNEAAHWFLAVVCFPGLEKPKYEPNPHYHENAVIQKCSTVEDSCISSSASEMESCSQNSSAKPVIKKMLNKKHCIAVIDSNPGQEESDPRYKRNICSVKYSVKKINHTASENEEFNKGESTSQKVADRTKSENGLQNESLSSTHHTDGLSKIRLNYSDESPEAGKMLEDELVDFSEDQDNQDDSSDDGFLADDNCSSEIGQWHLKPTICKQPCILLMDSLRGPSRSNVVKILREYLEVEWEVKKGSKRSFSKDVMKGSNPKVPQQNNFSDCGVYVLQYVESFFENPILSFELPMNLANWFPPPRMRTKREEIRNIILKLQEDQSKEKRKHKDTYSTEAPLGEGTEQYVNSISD

[18] = molecular target: T5, Sentrin-specific protease 8 (Homo sapiens, UniProt Q96LD8); assay type: functional;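 also: luminescence read-out of SENP8 inhibition, dose-response confirmation following an ultra-high-throughput screen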
T5 sequence (Q96LD8 whole entry): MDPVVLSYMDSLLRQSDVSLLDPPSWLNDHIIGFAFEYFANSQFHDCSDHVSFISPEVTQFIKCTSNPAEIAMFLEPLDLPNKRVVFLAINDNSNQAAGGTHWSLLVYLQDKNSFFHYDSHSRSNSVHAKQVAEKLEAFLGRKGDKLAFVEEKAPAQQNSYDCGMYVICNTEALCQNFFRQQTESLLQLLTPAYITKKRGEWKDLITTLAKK

CCCc1cc(O)nc(SCC(=O)c2c(N)n(CC(C)C)c(=O)n(C)c2=O)n1
EC50 [1]: 9.13 µM (active)
EC50 (BJ [2]): > 150 µM (not active)
EC50 [3]: 18.1 µM (active)
EC50 [4]: 12.1 µM (active)
EC50 (BJ [5]): 9.97 µM (inconclusive)
EC50 (BJ [6]): > 150 µM (not active)
EC50 [7]: 10.7 µM (active)
EC50 (BJ [8]): > 133 µM (inactive)

O=C(COC(=O)c1cc2c(s1)CCC2)Nc1ccc(F)cc1
IC50 [9]: 19.6 µM (active)
IC50 [10]: 34.6 µM (active)
IC50 [11]: 4.34 µM (active)
IC50 [12]: 10.3 µM (active)

Cc1nnc(SCCC(=O)Nc2nc(-c3ccccc3)ns2)s1
EC50 [13]: > 120 µM (not active)
EC50 [14]: 15 µM (active)
EC50 (H4): 8.61 µM (active)
EC50 [15]: 2.54 µM (active)
IC50 (Caspase-3): 44.1 µM (active)
IC50 [16]: 13.1 µM (active)
IC50 [17]: 21.9 µM (active)
IC50 [18]: 24.1 µM (active)
